Laboratory results published in patent US11286228B2, “Stilbene derivative and method for preparing same” (Ozchela Inc., priority 2016, dated 2022).
pEC50, pIC50: −log10 of the molar value.

The molecules below were run on mitochondria obtained from hepatocytes (assay: Inhibitory activity on calcium-induced mitochondrial swelling (absorbance 520 nm)). Conditions: Hepatocyte, read-out: Test Example 4: inhibiting mitochondrial swelling (IC50).
Excerpt: Cyclophilin is a key protein for forming permeability transition pores (PTP) in mitochondria. When permeability transition pores are formed, mitochondria swell, whereby the outer membrane thereof ruptures and thus cell death progresses. Such mitochondrial dysfunction causes many diseases including neurodegenerative diseases, cancer, and the like. Cyclosporine, a known cyclophilin inhibitor, is capable of preventing the formation of permeability transition pores to thus suppress mitochondrial swelling.
The mitochondrial swelling test was performed as follows. Specifically, the hepatocytes were disrupted using a Dounce tissue grinder. The disrupted cells were centrifuged at 700×g for 10 min and the supernatant was transferred into a new tube. The supernatant was centrifuged at 12,000×g for 15 min, thereby obtaining mitochondria.
When the extracted mitochondria were added with calcium, they swelled, which may be observed by measuring the absorbance at 520 nm. The stilbene derivatives are effective at inhibiting mitochondrial swelling due to calcium.
The activity of Compounds 1 to 155 of Tables 1 to 10 on inhibiting mitochondrial swelling may be determined based on IC50 values, and may be grouped as follows: […]

`N#CC(=Cc1ccccc1C1CCCCC1)c1ccc([N+](=O)[O-])cc1` [Compound 31] was tested, and the pIC50 was 4.30 to 5.30.

Same assay, conditions: Hepatocyte; calcium-induced swelling of extracted mitochondria; read-out: Test Example 4: inhibiting mitochondrial swelling (IC50)

`Cc1ccc(C(C#N)=Cc2ccccc2N(C)C)cc1` [Compound 1] and `CN(C)c1ccccc1C=C(C#N)c1ccc([N+](=O)[O-])cc1` [Compound 7] fall in the same range of pIC50: 3.30 to 4.30 for the first, 3.30 to 4.30 for the second.

`CC(C)c1ccc(C(C#N)=Cc2ccccc2Cl)cc1` [Compound 4] and `COc1ccccc1C=C(C#N)c1ccc(C(C)C)cc1` [Compound 6] fall in the same range of pIC50: 3.30 to 4.30 for the first, 3.30 to 4.30 for the second.

First: CC(C)c1ccc(C(C#N)=Cc2ccccc2C(=O)O)cc1 [Compound 5]
Second: CC(C)(C)c1ccc(C(C#N)=Cc2ccccc2C(=O)O)cc1 [Compound 10]
The pIC50 of the first is lower: 3.30 to 4.30 for the first, 4.30 to 5.30 for the second.

Compared with `COc1ccccc1C=C(C#N)c1ccc(C(C)(C)C)cc1` [Compound 11], `COc1ccccc1C=C(C#N)c1ccc(C(=O)C(C)(C)C)cc1` [Compound 14] is higher in pIC50: 3.30 to 4.30 for the first, 4.30 to 5.30 for the second. The second is the more potent here.

`COc1ccccc1C=C(C#N)c1ccc(C)c(C)c1` [Compound 12] and `CCOc1ccc(C(C#N)=Cc2ccccc2OC)cc1` [Compound 16] fall in the same range of pIC50: 3.30 to 4.30 for the first, 3.30 to 4.30 for the second.

First: CCCCOc1ccc(C(C#N)=Cc2ccccc2OC)cc1 [Compound 18]
Second: CN(C)CCOc1ccccc1C=C(C#N)c1ccc([N+](=O)[O-])cc1 [Compound 28]
The pIC50 of the first is higher: 4.30 to 5.30 for the first, 3.30 to 4.30 for the second. The first is the more potent here.

First: COc1ccccc1C=C(C#N)c1ccc(Cc2ccccc2)cc1 [Compound 20]
Second: CCC(C)Oc1ccccc1C=C(C#N)c1ccc([N+](=O)[O-])cc1 (stereo not drawn) [Compound 26]
The pIC50 of the first is higher: > 5.30 for the first, 3.30 to 4.30 for the second. The first is the more potent here.

`CCc1ccccc1C=C(C#N)c1ccc([N+](=O)[O-])cc1` [Compound 22] and `CC(C)Cc1ccccc1C=C(C#N)c1ccc([N+](=O)[O-])cc1` [Compound 34] fall in the same range of pIC50: 3.30 to 4.30 for the first, 3.30 to 4.30 for the second.

`CC(C)c1ccccc1C=C(C#N)c1ccc([N+](=O)[O-])cc1` [Compound 23] and `N#CC(=Cc1ccccc1N)c1ccc([N+](=O)[O-])cc1` [Compound 24] fall in the same range of pIC50: 3.30 to 4.30 for the first, 3.30 to 4.30 for the second.

`CN1CCN(c2ccccc2C=C(C#N)c2ccc([N+](=O)[O-])cc2)CC1` [Compound 25] and `N#CC(=Cc1ccccc1N1CCCCC1)c1ccc([N+](=O)[O-])cc1` [Compound 29] fall in the same range of pIC50: 3.30 to 4.30 for the first, 3.30 to 4.30 for the second.

`N#CC(=Cc1ccccc1N1CCOCC1)c1ccc([N+](=O)[O-])cc1` [Compound 30] and `CC(C)CCOc1cccc(C=C(C#N)c2ccc([N+](=O)[O-])cc2)c1` [Compound 32] fall in the same range of pIC50: 3.30 to 4.30 for the first, 3.30 to 4.30 for the second.

For `CN(C)CCCOc1cccc(C=C(C#N)c2ccc([N+](=O)[O-])cc2)c1` [Compound 33], the pIC50 was 3.30 to 4.30.

These molecules were tested against cyclophilin (assay: Cis-trans isomerase inhibitory activity (chymotrypsin-coupled Suc-AAPF-pNA cleavage, absorbance 390 nm)). Conditions: cyclophilin, chymotrypsin, Suc-AAPF-pNA; read-out: Test Example 1: cis-trans isomerase inhibitory activity (IC50).
Type: biochemical
Excerpt: Chymotrypsin cleaves a trans-type alanine-proline peptide bond. When Suc-AAPF-pNA (a peptide substrate) and chymotrypsin are mixed, the trans-type peptide substrate is cleaved and the cis-type peptide substrate remains. The remaining cis-type peptide substrate is converted into a trans form by a cis-trans isomerase and is then cleaved again by chymotrypsin. When the cis-trans isomerase is present, chymotrypsin is able to cleave a larger amount of trans-type peptide substrate within a predetermined period of time, from which the activity of the cis-trans isomerase may be determined. The amount of the cleaved trans-type peptide substrate is measured using absorbance at 390 nm. Cyclophilin has cis-trans isomerase activity, and accelerates the cleavage of trans-type peptide substrate by chymotrypsin. When the stilbene derivatives of the present invention were treated together with cyclophilin, the cleavage of the peptide substrate by chymotrypsin was not observed to accelerate. Thereby, the stilbene derivatives of the invention can be concluded to inhibit the activity of cyclophilin.

`Cc1ccc(C(C#N)=Cc2ccccc2N(C)C)cc1` [Compound 1] and `CN(C)c1ccccc1C=C(C#N)c1ccc([N+](=O)[O-])cc1` [Compound 7] fall in the same range of pIC50: 5.70 to 6.70 for the first, 5.70 to 6.70 for the second.

`CC(C)c1ccc(C(C#N)=Cc2ccccc2Cl)cc1` [Compound 4] and `COc1ccccc1C=C(C#N)c1ccc(C(C)C)cc1` [Compound 6] fall in the same range of pIC50: 5.70 to 6.70 for the first, 5.70 to 6.70 for the second.

First: CC(C)c1ccc(C(C#N)=Cc2ccccc2C(=O)O)cc1 [Compound 5]
Second: CC(C)(C)c1ccc(C(C#N)=Cc2ccccc2C(=O)O)cc1 [Compound 10]
The pIC50 of the first is lower: 5.70 to 6.70 for the first, 6.70 to 7.70 for the second. The second is the more potent here.

First: COc1ccccc1C=C(C#N)c1ccc(C(C)(C)C)cc1 [Compound 11]
Second: COc1ccccc1C=C(C#N)c1ccc(C(=O)C(C)(C)C)cc1 [Compound 14]
The pIC50 of the first is lower: 5.70 to 6.70 for the first, 6.70 to 7.70 for the second. The second is the more potent here.

`COc1ccccc1C=C(C#N)c1ccc(C)c(C)c1` [Compound 12] and `CCOc1ccc(C(C#N)=Cc2ccccc2OC)cc1` [Compound 16] fall in the same range of pIC50: 5.70 to 6.70 for the first, 5.70 to 6.70 for the second.

First: CCCCOc1ccc(C(C#N)=Cc2ccccc2OC)cc1 [Compound 18]
Second: CN(C)CCOc1ccccc1C=C(C#N)c1ccc([N+](=O)[O-])cc1 [Compound 28]
The pIC50 of the first is higher: 6.70 to 7.70 for the first, 5.70 to 6.70 for the second. The first is the more potent here.

Compared with `COc1ccccc1C=C(C#N)c1ccc(Cc2ccccc2)cc1` [Compound 20], `CCC(C)Oc1ccccc1C=C(C#N)c1ccc([N+](=O)[O-])cc1` (stereo not drawn) [Compound 26] is lower in pIC50: ≥ 7.70 for the first, 5.70 to 6.70 for the second.

`CCc1ccccc1C=C(C#N)c1ccc([N+](=O)[O-])cc1` [Compound 22] and `CC(C)Cc1ccccc1C=C(C#N)c1ccc([N+](=O)[O-])cc1` [Compound 34] fall in the same range of pIC50: 5.70 to 6.70 for the first, 5.70 to 6.70 for the second.

`CC(C)c1ccccc1C=C(C#N)c1ccc([N+](=O)[O-])cc1` [Compound 23] and `N#CC(=Cc1ccccc1N)c1ccc([N+](=O)[O-])cc1` [Compound 24] fall in the same range of pIC50: 5.70 to 6.70 for the first, 5.70 to 6.70 for the second.

`CN1CCN(c2ccccc2C=C(C#N)c2ccc([N+](=O)[O-])cc2)CC1` [Compound 25] and `N#CC(=Cc1ccccc1N1CCCCC1)c1ccc([N+](=O)[O-])cc1` [Compound 29] fall in the same range of pIC50: 5.70 to 6.70 for the first, 5.70 to 6.70 for the second.

First: N#CC(=Cc1ccccc1N1CCOCC1)c1ccc([N+](=O)[O-])cc1 [Compound 30]
Second: N#CC(=Cc1ccccc1C1CCCCC1)c1ccc([N+](=O)[O-])cc1 [Compound 31]
The pIC50 of the first is lower: 5.70 to 6.70 for the first, 6.70 to 7.70 for the second.

`CC(C)CCOc1cccc(C=C(C#N)c2ccc([N+](=O)[O-])cc2)c1` [Compound 32] and `CN(C)CCCOc1cccc(C=C(C#N)c2ccc([N+](=O)[O-])cc2)c1` [Compound 33] fall in the same range of pIC50: 5.70 to 6.70 for the first, 5.70 to 6.70 for the second.

The molecules below were run on hepatitis C virus (assay: Antiviral activity in HCV replicon cells (Renilla luciferase)). Conditions: Hepatitis C virus, 72 h, read-out: Test Example 3: antiviral activity (EC50).
Type: cell-based
Experimental: The antiviral activity of the stilbene derivatives on hepatitis C virus was measured. The replicon cells that stably replicate the hepatitis C virus genome were attached to a culture plate and cultured in a CO2 incubator at 37° C. for 24 hr. The replicon cells cultured for one day were washed with a PBS solution, treated with the compounds of the present invention, and then cultured for 72 hr. The stilbene derivative-treated replicon cells were washed with a cold PBS solution and added with 20 μL of a cell lysis solution so that the cells were lysed in ice for 20 min. 100 μL of a Renilla luciferase substrate was added thereto, after which the luminescence thereof was measured and thus the amount of the hepatitis C virus genome was estimated. The amount of the hepatitis C virus genome in the stilbene derivative-treated replicon cells according to the present invention relative to the amount of the hepatitis C virus genome in dimethylsulfoxide (DMSO)-treated replicon cells is shown.
Compounds 1 to 155 of Tables 1 to 10 may be grouped as follows based on the antiviral activity (EC50) values: […]

`N#CC(=Cc1ccccc1C1CCCCC1)c1ccc([N+](=O)[O-])cc1` [Compound 31] showed a pEC50 of 5.30 to 6.30.

Same assay, conditions: Hepatitis C virus; HCV replicon cells, 72 hr, Renilla luciferase, relative to DMSO; read-out: Test Example 3: antiviral activity (EC50)

`Cc1ccc(C(C#N)=Cc2ccccc2N(C)C)cc1` [Compound 1] and `CN(C)c1ccccc1C=C(C#N)c1ccc([N+](=O)[O-])cc1` [Compound 7] fall in the same range of pEC50: 4.30 to 5.30 for the first, 4.30 to 5.30 for the second.

`CC(C)c1ccc(C(C#N)=Cc2ccccc2Cl)cc1` [Compound 4] and `COc1ccccc1C=C(C#N)c1ccc(C(C)C)cc1` [Compound 6] fall in the same range of pEC50: 4.30 to 5.30 for the first, 4.30 to 5.30 for the second.

Compared with `CC(C)c1ccc(C(C#N)=Cc2ccccc2C(=O)O)cc1` [Compound 5], `CC(C)(C)c1ccc(C(C#N)=Cc2ccccc2C(=O)O)cc1` [Compound 10] is higher in pEC50: 4.30 to 5.30 for the first, 5.30 to 6.30 for the second. The second is the more potent here.

Compared with `COc1ccccc1C=C(C#N)c1ccc(C(C)(C)C)cc1` [Compound 11], `COc1ccccc1C=C(C#N)c1ccc(C(=O)C(C)(C)C)cc1` [Compound 14] is higher in pEC50: 4.30 to 5.30 for the first, 5.30 to 6.30 for the second.

`COc1ccccc1C=C(C#N)c1ccc(C)c(C)c1` [Compound 12] and `CCOc1ccc(C(C#N)=Cc2ccccc2OC)cc1` [Compound 16] fall in the same range of pEC50: 4.30 to 5.30 for the first, 4.30 to 5.30 for the second.

First: CCCCOc1ccc(C(C#N)=Cc2ccccc2OC)cc1 [Compound 18]
Second: CN(C)CCOc1ccccc1C=C(C#N)c1ccc([N+](=O)[O-])cc1 [Compound 28]
The pEC50 of the first is higher: 5.30 to 6.30 for the first, 4.30 to 5.30 for the second. The first is the more potent here.

First: COc1ccccc1C=C(C#N)c1ccc(Cc2ccccc2)cc1 [Compound 20]
Second: CCC(C)Oc1ccccc1C=C(C#N)c1ccc([N+](=O)[O-])cc1 (stereo not drawn) [Compound 26]
The pEC50 of the first is higher: > 6.30 for the first, 4.30 to 5.30 for the second.

`CCc1ccccc1C=C(C#N)c1ccc([N+](=O)[O-])cc1` [Compound 22] and `CC(C)Cc1ccccc1C=C(C#N)c1ccc([N+](=O)[O-])cc1` [Compound 34] fall in the same range of pEC50: 4.30 to 5.30 for the first, 4.30 to 5.30 for the second.

`CC(C)c1ccccc1C=C(C#N)c1ccc([N+](=O)[O-])cc1` [Compound 23] and `N#CC(=Cc1ccccc1N)c1ccc([N+](=O)[O-])cc1` [Compound 24] fall in the same range of pEC50: 4.30 to 5.30 for the first, 4.30 to 5.30 for the second.

`CN1CCN(c2ccccc2C=C(C#N)c2ccc([N+](=O)[O-])cc2)CC1` [Compound 25] and `N#CC(=Cc1ccccc1N1CCCCC1)c1ccc([N+](=O)[O-])cc1` [Compound 29] fall in the same range of pEC50: 4.30 to 5.30 for the first, 4.30 to 5.30 for the second.

`N#CC(=Cc1ccccc1N1CCOCC1)c1ccc([N+](=O)[O-])cc1` [Compound 30] and `CC(C)CCOc1cccc(C=C(C#N)c2ccc([N+](=O)[O-])cc2)c1` [Compound 32] fall in the same range of pEC50: 4.30 to 5.30 for the first, 4.30 to 5.30 for the second.

Work on `CN(C)CCCOc1cccc(C=C(C#N)c2ccc([N+](=O)[O-])cc2)c1` [Compound 33] yielded a pEC50 of 4.30 to 5.30.
